In patent US4358441A, “Nicotinic derivatives of glucosamine and related pharmaceutical compositions” (Laboratorio Guidotti & C. S.p.A., priority 1980, dated 1982):

Key:
[1] = system: plasma levels of cholesterol; assay: Effect of oral administration on plasma levels of cholesterol in the empty rat; type: in vivo, rat (COBS CD (SD) BR male); settings: for Percent variations of plasma cholesterol with respect to the controls: 100 mg/kg oral referred to nicotinic acid, empty rat
in vivo = settings: rat, po, 100 mg/kg
[2] = Acute toxicity (LD50) in rats of both sexes, oral and intraperitoneal route; settings: rat, in vivo, LD50, rat
plasma levels of FFA = assay: Effect of oral administration on plasma levels of FFA in the empty rat; settings: for Percent variations of plasma FFA with respect to the controls: empty rat
[3] = system: plasma levels of free glycerol; assay: Effect of oral administration on plasma levels of free glycerol in the empty rat; type: in vivo, rat (COBS CD (SD) BR male); settings: for Percent variations of plasma free glycerol with respect to the controls: empty rat
[4] = Plasma levels (kinetics) of free nicotinic acid after oral administration in the rat; settings: 100 mg/kg p.o.
[5] = system: plasma levels of triglycerides; assay: Effect of oral administration on plasma levels of triglycerides in the empty rat; type: in vivo, rat (COBS CD (SD) BR male); settings: for Percent variations of plasma triglycerides with respect to the controls: empty rat; for Time within which the effect on triglycerides disappears: rat
[6] = 30 mg/kg oral referred to nicotinic acid, 1 h
[7] = 30 mg/kg oral referred to nicotinic acid, 2 h
[8] = 30 mg/kg oral referred to nicotinic acid, 4 h
[9] = 30 mg/kg oral referred to nicotinic acid, 6 h
[10] = 100 mg/kg oral referred to nicotinic acid, 2 h
[11] = 100 mg/kg oral referred to nicotinic acid, 4 h
[12] = 100 mg/kg oral referred to nicotinic acid, 6 h
[13] = 100 mg/kg oral referred to nicotinic acid, 8 h
[14] = 100 mg/kg oral referred to nicotinic acid, 10 h
[15] = 100 mg/kg oral referred to nicotinic acid, 16 h
[16] = 100 mg/kg oral referred to nicotinic acid, 24 h

## O=C(O)c1cccnc1 [NICOTINIC ACID, nicotinic acid]
[1]; 4 h
  Percent variations of plasma cholesterol with respect to the controls: -12%
[1]; 6 h
  Percent variations of plasma cholesterol with respect to the controls: -12%
[1]; 8 h
  Percent variations of plasma cholesterol with respect to the controls: -13%
[1]; 10 h
  Percent variations of plasma cholesterol with respect to the controls: -17%
[1]; 16 h
  Percent variations of plasma cholesterol with respect to the controls: -14%
[1]; 24 h
  Percent variations of plasma cholesterol with respect to the controls: -27%
[1]; 100 mg/kg oral, rat
  Lowering of cholesterolemy: lowered at the eighth, tenth and twenty fourth hour
In vivo
  Tmax: ≤ 30 min
  concentration at 0.5 h: 108000 ng/mL
  concentration at 1 h: 106000 ng/mL
  concentration at 2 h: 98300 ng/mL
  concentration at 4 h: 10600 ng/mL
  concentration at 6 h: 760 ng/mL
  concentration at 8 h: 250 ng/mL
  concentration at 12 h: 490 ng/mL
  concentration at 16 h: 120 ng/mL
[2]; ip, female
  LD50: 296 mg/kg
[2]; ip, male
  LD50: 328 mg/kg
[2]; po, female, os
  LD50: 3850 mg/kg
[2]; po, male, os
  LD50: 3860 mg/kg
Plasma levels of FFA; [6]
  Percent variations of plasma FFA with respect to the controls: -81%
Plasma levels of FFA; [7]
  Percent variations of plasma FFA with respect to the controls: -43%
Plasma levels of FFA; [8]
  Percent variations of plasma FFA with respect to the controls: +23%
Plasma levels of FFA; [9]
  Percent variations of plasma FFA with respect to the controls: +11%
Plasma levels of FFA; 30 mg/kg oral, rat
  FFA rebound: causes FFA rebound in the fourth hour
Plasma levels of FFA; [10]
  Percent variations of plasma FFA with respect to the controls: -77%
Plasma levels of FFA; [11]
  Percent variations of plasma FFA with respect to the controls: -68%
Plasma levels of FFA; [12]
  Percent variations of plasma FFA with respect to the controls: +23%
Plasma levels of FFA; [13]
  Percent variations of plasma FFA with respect to the controls: +23%
Plasma levels of FFA; [14]
  Percent variations of plasma FFA with respect to the controls: +13%
Plasma levels of FFA; [15]
  Percent variations of plasma FFA with respect to the controls: -9%
Plasma levels of FFA; [16]
  Percent variations of plasma FFA with respect to the controls: -5%
Plasma levels of FFA; 100 mg/kg oral, rat
  FFA rebound: eighth
  Time within which the effect on FFA disappears: ≤ 6 h
[3]; [6]
  Percent variations of plasma free glycerol with respect to the controls: -72%
[3]; [7]
  Percent variations of plasma free glycerol with respect to the controls: -27%
[3]; [8]
  Percent variations of plasma free glycerol with respect to the controls: +16%
[3]; [9]
  Percent variations of plasma free glycerol with respect to the controls: +15%
[3]; 30 mg/kg oral, rat
  Activity on free glycerol: active only after 1 hour
[3]; [10]
  Percent variations of plasma free glycerol with respect to the controls: -73%
[3]; [11]
  Percent variations of plasma free glycerol with respect to the controls: -71%
[3]; [12]
  Percent variations of plasma free glycerol with respect to the controls: +9%
[3]; [13]
  Percent variations of plasma free glycerol with respect to the controls: +11%
[3]; [14]
  Percent variations of plasma free glycerol with respect to the controls: +16%
[3]; [15]
  Percent variations of plasma free glycerol with respect to the controls: -12%
[3]; [16]
  Percent variations of plasma free glycerol with respect to the controls: -4%
[3]; 100 mg/kg oral, rat
  Time within which the effect on free glycerol disappears: within the sixth hour
[4]
  Peak plasma concentration of free nicotinic acid, times higher than that of niceritrole: about two times higher
[5]; [6]
  Percent variations of plasma triglycerides with respect to the controls: -49%
[5]; [7]
  Percent variations of plasma triglycerides with respect to the controls: -49%
[5]; [8]
  Percent variations of plasma triglycerides with respect to the controls: +8%
[5]; [9]
  Percent variations of plasma triglycerides with respect to the controls: +17%
[5]; 30 mg/kg oral
  Time within which the effect on triglycerides disappears: ≤ 4 h
[5]; [10]
  Percent variations of plasma triglycerides with respect to the controls: -57%
[5]; [11]
  Percent variations of plasma triglycerides with respect to the controls: -58%
[5]; [12]
  Percent variations of plasma triglycerides with respect to the controls: -59%
[5]; [13]
  Percent variations of plasma triglycerides with respect to the controls: -38%
[5]; [14]
  Percent variations of plasma triglycerides with respect to the controls: +4%
[5]; [15]
  Percent variations of plasma triglycerides with respect to the controls: +21%
[5]; [16]
  Percent variations of plasma triglycerides with respect to the controls: -16%
[5]; 100 mg/kg oral
  Time within which the effect on triglycerides disappears: within the tenth hour
